Laboratory results taken from patent publication US8586551B2, “18-membered macrocycles and analogs thereof” (Optimer Pharmaceuticals, Inc., priority 2005, dated 2013).
Converted amounts (≈) assume the structure as drawn. Where two headings read alike, the source gives them in different places.

System: C. difficile clinical isolates
Assay: MIC via agar dilution versus 110 clinical isolates of C. difficile
Assay type: cell-based

Work on `CCc1c(Cl)c(O)c(Cl)c(O)c1C(=O)O[C@H]1[C@H](O)[C@H](OC)[C@H](OCC2=CC=CC[C@H](O)C(C)=C[C@H](CC)[C@@H](O[C@@H]3OC(C)(C)[C@@H](OC(=O)C(C)C)[C@H](O)[C@@H]3O)C(C)=CC(C)=CC[C@@H]([C@@H](C)O)OC2=O)O[C@@H]1C` [R-Tiacumicin B, 3-[[[6-Deoxy-4-O-(3,5-dichloro-2-ethyl-4,6-dihydroxybenzoyl)-2-O-methyl-β-D-mannopyranosyl]oxy]-methyl]-12(R)-[[6-deoxy-5-C-methyl-4-O-(2-methyl-1-oxopropyl)-β-D-lyxo-hexopyranosyl]oxy]-11(S)-ethyl-8(S)-hydroxy-18(S)-(1(R)-hydroxyethyl)-9,13,15-trimethyloxacyclooctadeca-3,5,9,13,15-pentaene-2-one] yielded an MIC (Clostridioides difficile) of 0.125 µg/mL (≈ 0.118 µM), an MIC (Clostridioides difficile, isolate 61 5930, read-out: MIC) of 0.03 µg/mL (≈ 0.0284 µM) and an MIC (Clostridioides difficile, isolate 65 5967, read-out: MIC) of 0.06 µg/mL (≈ 0.0567 µM). For the same molecule, the MIC (Clostridioides difficile, isolate 68 6368, read-out: MIC) was 0.03 µg/mL (≈ 0.0284 µM), the MIC (Clostridioides difficile, isolate 77 6390, read-out: MIC) was 0.06 µg/mL (≈ 0.0567 µM) and the MIC (Clostridioides difficile, isolate 82 6329, read-out: MIC) was 0.06 µg/mL (≈ 0.0567 µM). It also gave an MIC (Clostridioides difficile, isolate 83 6330, read-out: MIC) of 0.06 µg/mL (≈ 0.0567 µM), an MIC (Clostridioides difficile, isolate 85 6332, read-out: MIC) of 0.06 µg/mL (≈ 0.0567 µM) and an MIC (Clostridioides difficile, isolate 86 6333, read-out: MIC) of 0.03 µg/mL (≈ 0.0284 µM). For the same molecule, the MIC (Clostridioides difficile, isolate 96 6348, read-out: MIC) was 0.06 µg/mL (≈ 0.0567 µM), the MIC (Clostridioides difficile, isolate 103 6068, read-out: MIC) was 0.06 µg/mL (≈ 0.0567 µM) and the MIC (Clostridioides difficile, isolate 104 6060, read-out: MIC) was 0.03 µg/mL (≈ 0.0284 µM). The MIC (Clostridioides difficile, isolate 105 6071, read-out: MIC) was 0.03 µg/mL (≈ 0.0284 µM), the MIC (Clostridioides difficile, isolate 106 6078, read-out: MIC) was 0.03 µg/mL (≈ 0.0284 µM) and the MIC (Clostridioides difficile, isolate 107 6079, read-out: MIC) was 0.06 µg/mL (≈ 0.0567 µM). The MIC (Clostridioides difficile, isolate 111 6279, read-out: MIC) was 0.03 µg/mL (≈ 0.0284 µM), the MIC (Clostridioides difficile, isolate 112 6280, read-out: MIC) was 0.06 µg/mL (≈ 0.0567 µM) and the MIC (Clostridioides difficile, isolate 113 6304, read-out: MIC) was 0.06 µg/mL (≈ 0.0567 µM). The MIC (Clostridioides difficile, isolate 114 386, read-out: MIC) was 0.06 µg/mL (≈ 0.0567 µM), the MIC (Clostridioides difficile, isolate 116 5702, read-out: MIC) was 0.06 µg/mL (≈ 0.0567 µM) and the MIC (Clostridioides difficile, isolate 117 6026, read-out: MIC) was 0.06 µg/mL (≈ 0.0567 µM). It also gave an MIC (Clostridioides difficile, isolate 120 6057, read-out: MIC) of 0.03 µg/mL (≈ 0.0284 µM), an MIC (Clostridioides difficile, isolate 121 6072, read-out: MIC) of 0.06 µg/mL (≈ 0.0567 µM) and an MIC (Clostridioides difficile, isolate AB2 1725, read-out: MIC) of 0.06 µg/mL (≈ 0.0567 µM). For the same molecule, the MIC (Clostridioides difficile, isolate AC1 1546, read-out: MIC) was 0.06 µg/mL (≈ 0.0567 µM), the MIC (Clostridioides difficile, isolate AJ1 1557, read-out: MIC) was 0.06 µg/mL (≈ 0.0567 µM) and the MIC (Clostridioides difficile, isolate AL1 1753, read-out: MIC) was 0.06 µg/mL (≈ 0.0567 µM). It also gave an MIC (Clostridioides difficile, isolate B1 832, read-out: MIC) of 0.06 µg/mL (≈ 0.0567 µM), an MIC (Clostridioides difficile, isolate BH1 4506, read-out: MIC) of 0.06 µg/mL (≈ 0.0567 µM) and an MIC (Clostridioides difficile, isolate BM1 1453, read-out: MIC) of 0.06 µg/mL (≈ 0.0567 µM). For the same molecule, the MIC (Clostridioides difficile, isolate BR1 1321, read-out: MIC) was 0.06 µg/mL (≈ 0.0567 µM), the MIC (Clostridioides difficile, isolate BT1 706, read-out: MIC) was 0.06 µg/mL (≈ 0.0567 µM) and the MIC (Clostridioides difficile, isolate D1 1360, read-out: MIC) was 0.03 µg/mL (≈ 0.0284 µM). For the same molecule, the MIC (Clostridioides difficile, isolate E1 816, read-out: MIC) was 0.06 µg/mL (≈ 0.0567 µM), the MIC (Clostridioides difficile, isolate J1 5971, read-out: MIC) was 0.06 µg/mL (≈ 0.0567 µM) and the MIC (Clostridioides difficile, isolate J7 4224, read-out: MIC) was 0.03 µg/mL (≈ 0.0284 µM). It also gave an MIC (Clostridioides difficile, isolate J9 4478, read-out: MIC) of 0.06 µg/mL (≈ 0.0567 µM), an MIC (Clostridioides difficile, isolate O1 1861, read-out: MIC) of 0.06 µg/mL (≈ 0.0567 µM) and an MIC (Clostridioides difficile, isolate Y1 5639, read-out: MIC) of 0.06 µg/mL (≈ 0.0567 µM). It also gave an MIC (Clostridioides difficile, isolate Y2 1459, read-out: MIC) of 0.06 µg/mL (≈ 0.0567 µM), an MIC (Clostridioides difficile, isolate Z1 3036, read-out: MIC) of 0.03 µg/mL (≈ 0.0284 µM) and an MIC (isolate 64 5940) of 0.125 µg/mL (≈ 0.118 µM). It also gave an MIC (isolate 67 6367) of 0.125 µg/mL (≈ 0.118 µM), an MIC (isolate 70 6376) of 0.125 µg/mL (≈ 0.118 µM) and an MIC (isolate 71 6379) of 0.125 µg/mL (≈ 0.118 µM). The MIC (isolate 72 6380) was 0.125 µg/mL (≈ 0.118 µM), the MIC (isolate 75 6388) was 0.125 µg/mL (≈ 0.118 µM) and the MIC (isolate 76 6389) was 0.125 µg/mL (≈ 0.118 µM). It also gave an MIC (isolate 80 6327) of 0.125 µg/mL (≈ 0.118 µM), an MIC (isolate 81 6328) of 0.125 µg/mL (≈ 0.118 µM) and an MIC (isolate 84 6331) of 0.125 µg/mL (≈ 0.118 µM). For the same molecule, the MIC (isolate 87 6334) was 0.125 µg/mL (≈ 0.118 µM), the MIC (isolate 88 6335) was 0.125 µg/mL (≈ 0.118 µM) and the MIC (isolate 90 6338) was 0.125 µg/mL (≈ 0.118 µM). The MIC (isolate 91 6339) was 0.125 µg/mL (≈ 0.118 µM), the MIC (isolate 93 6341) was 0.125 µg/mL (≈ 0.118 µM) and the MIC (isolate 95 6347) was 0.125 µg/mL (≈ 0.118 µM). The MIC (isolate 98 6350) was 0.125 µg/mL (≈ 0.118 µM), the MIC (isolate 100 6353) was 0.125 µg/mL (≈ 0.118 µM) and the MIC (isolate A1 1535) was 0.125 µg/mL (≈ 0.118 µM). The MIC (isolate AF1 1808) was 0.125 µg/mL (≈ 0.118 µM), the MIC (isolate AG1 3044) was 0.125 µg/mL (≈ 0.118 µM) and the MIC (isolate AH1 3430) was 0.125 µg/mL (≈ 0.118 µM).
